From ChEMBL document CHEMBL1800007, “Synthesis, activity, and structural analysis of novel α-hydroxytropolone inhibitors of human immunodeficiency virus reverse transcriptase-associated ribonuclease H” (J Med Chem, 2011)
The source made the active and inactive calls. The rule behind the calls is not given here.

Key:
[1] = biological target: Human immunodeficiency virus type 1 reverse transcriptase (Human immunodeficiency virus 1, UniProt Q72547); assay: Inhibition of RNase H activity of his6-tagged HIV1 HXB2 reverse transcriptase p66/p51 expressed in Escherichia coli assessed as substrate cleavage at polypurine tract by PAGE-based fluorescent imaging method
[2] = system: Human immunodeficiency virus 1; conditions: at 20 µM
Description: Inhibition of DNA dependent DNA polymerase activity of his6-tagged HIV1 HXB2 reverse transcriptase p66 D549A/p51 mutant expressed in Escherichia coli at 20 uM using fluorescently tagged duplex DNA substrate by PAGE and fluorescent imaging method

CEM-SS = assay: (§1) Cytotoxicity against human CEM-SS cells; format: cell-based; conditions: cem-ss
[3] = system: Human immunodeficiency virus 1; assay: Antiviral activity against HIV1 RF infected in human CEM-SS cells assessed as protection against virus-induced cytopathic effect; format: functional, organism-based
[4] = system: Human immunodeficiency virus 1; conditions: at 20 µM; remark: listed apart in the source
Description: Inhibition of DNA dependent DNA polymerase activity of his6-tagged HIV1 HXB2 reverse transcriptase p66 E478Q/p51 mutant expressed in Escherichia coli at 20 uM using fluorescently tagged duplex DNA substrate by PAGE and fluorescent imaging method

[5] = biological target: Human immunodeficiency virus type 1 reverse transcriptase (Human immunodeficiency virus 1) (UniProt Q72547); conditions: HXB2, at 20 µM
Description: Inhibition of DNA dependent DNA polymerase activity of his6-tagged HIV1 HXB2 reverse transcriptase p66/p51 expressed in Escherichia coli at 20 uM using fluorescently tagged duplex DNA substrate by PAGE and fluorescent imaging method

[6] = as §1; format: cell-based; conditions: CEM-SS cells
[7] = Therapeutic index, CC50 for human CEM-SS cells to EC50 for HIV1 RF; format: cell-based
[8] = Human immunodeficiency virus 1, RF, CEM-SS, read-out: EC50

Structure (SMILES) | IC50 [1] [nM] | inhibition [2] | CC50 (CEM-SS) [µM] | inhibition (INH) [3] [%] | inhibition [4] | inhibition [5] | CC50 [6] [nM] | EC50 ([3]; cem-ss) | EC50 [3, 8] [µM] | selectivity ratio [7]
CCN(CC)CC(C)(O)[C@H]1CCc2c(c(C)cc(O)c(=O)c2O)C1 (mixture of isomers) | 500 | inactive | > 50 | <50 | inactive | inactive | – | – | – | –
CCSCC(C)(O)[C@H]1CCc2c(c(C)cc(O)c(=O)c2O)C1 (mixture of isomers) | 380 | inactive | 25.8 | <50 | inactive | – | – | – | – | –
CC(C)c1ccc(O)c(=O)c(O)c1 [BETA-THUJAPLICINOL] | 210 | inactive | – | – | inactive | inactive | 2300 | Not Active | – | –
Cc1cc(O)c(=O)c(O)c2c1C[C@@H](C(C)(O)CSc1ccccc1)CC2 (mixture of isomers) | 930 | inactive | 17.8 | – | inactive | – | – | – | 11.5 | –
Cc1cc(O)c(=O)c(O)c2c1C[C@@H](C(C)O)CC2 (mixture of isomers) | 680 | inactive | 26.1 | – | inactive | – | – | – | 6.9 | –
Cc1cc(O)c(=O)c(O)c2c1C[C@@H](C(C)(O)CNc1ccccc1)CC2 (mixture of isomers) | 1200 | Active | 31.7 | – | Active | – | – | – | 7.4 | –
Cc1cc(O)c(=O)c(O)c2c1C[C@@H](C(C)(O)Cn1ccnc1)CC2 (mixture of isomers) | – | inactive | > 50 | – | inactive | inactive | – | – | 42.1 | –
Cc1cc(O)c(=O)c(O)c2c1C[C@@H](C(C)(O)CN1CCCCC1)CC2 (mixture of isomers) | 820 | inactive | > 50 | – | inactive | – | – | – | 10.2 | 4.9
Cc1cc(O)c(=O)c(O)c2c1C[C@@H](C(C)(O)C[S+]([O-])c1ccccc1)CC2 (mixture of isomers) | 1300 | Active | > 50 | – | Active | – | – | – | 14.5 | –
CCS(=O)(=O)CC(C)(O)[C@H]1CCc2c(c(C)cc(O)c(=O)c2O)C1 (mixture of isomers) | 240 | inactive | 10.4 | <50 | inactive | – | – | – | – | –
Cc1cc(O)c(=O)c(O)c2c1C[C@@H](C(C)(O)CNCc1ccccc1F)CC2 (mixture of isomers) | 1200 | inactive | > 50 | – | inactive | – | – | Not Active | – | –
Cc1cc(O)c(=O)c(O)c2c1C[C@@H](C(C)(O)CSCc1ccccc1)CC2 (mixture of isomers) | 1300 | inactive | 17.4 | – | inactive | – | – | – | 4.2 | –
C=C(C)[C@H]1CCc2c(c(C)cc(O)c(=O)c2O)C1 | 600 | inactive | – | – | inactive | inactive | – | Not Active | – | –
CC(=O)Oc1cc(C)c2c(c(OC(C)=O)c1=O)CC[C@H](C(C)(O)CO)C2 (mixture of isomers) | 1900 | inactive | – | – | inactive | inactive | > 50000 | Not Active | – | –
Cc1cc(O)c(=O)c(O)c2c1C[C@@H](C(C)NCc1ccccc1)CC2 (mixture of isomers) | 960 | inactive | 16.7 | – | inactive | – | – | – | 10.6 | –
Cc1cc(O)c(=O)c(O)c2c1C[C@@H](C(C)(O)CS(=O)(=O)c1ccccc1)CC2 (mixture of isomers) | 510 | inactive | > 50 | – | inactive | – | – | – | 21.2 | –
